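These data come from cells grown in 96-well plates and exposed to compound for 48 hours at five concentrations. GI50: concentration for 50% inhibition of growth. Definition used: TGI = concentration required for complete inhibition of growth.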
What was measured:
Assay in all cases: NCI anticancer screen, dose series, 48 h
NCI-H226 lung = tested on: NCI-H226 lung
SR leukemia = tested on: SR leukemia
OVCAR-8 ovarian = tested on: OVCAR-8 ovarian
OVCAR-5 ovarian = tested on: OVCAR-5 ovarian
RXF 393 renal = tested on: RXF 393 renal
SF-539 CNS = tested on: SF-539 CNS
SNB-75 CNS = tested on: SNB-75 CNS
EKVX NSCLC = tested on: EKVX NSCLC
SK-MEL-28 melanoma = tested on: SK-MEL-28 melanoma
COLO 205 colon = tested on: COLO 205 colon

Row | SMILES | TGI (NCI-H226 lung) [µM] | TGI (SR leukemia) [µM] | TGI (OVCAR-8 ovarian) [µM] | TGI (OVCAR-5 ovarian) [µM] | TGI (RXF 393 renal) [µM] | TGI (SF-539 CNS) [µM] | TGI (SNB-75 CNS) [µM] | TGI (EKVX NSCLC) [µM] | TGI (SK-MEL-28 melanoma) [µM] | TGI (COLO 205 colon) [µM] | GI50 (NCI-H226 lung) [µM] | GI50 (SR leukemia) [µM] | GI50 (OVCAR-8 ovarian) [µM] | GI50 (OVCAR-5 ovarian) [µM] | GI50 (RXF 393 renal) [µM] | GI50 (SF-539 CNS) [µM] | GI50 (SNB-75 CNS) [µM] | GI50 (EKVX NSCLC) [µM] | GI50 (SK-MEL-28 melanoma) [µM] | GI50 (COLO 205 colon) [µM]
1 | COc1ccc2c(c1OC)OCC(CN(C)C)C2=O (stereo unspecified) | > 67.4 | 10.5 | 50.2 | 35.7 | 30.5 | 36.7 | 52.4 | 49.9 | 32.3 | 21.6 |  |  |  |  |  |  |  |  |  | 
2 | O=C(NCc1ccco1)c1ccc(NC2=C(Cl)C(=O)N(Cc3ccccc3)C2=O)cc1 | 60.8 | 7.14 | > 100 | 44.9 | > 100 | 41 | > 100 | 72.5 | 43.4 | 80.1 | 17.2 | 2.21 | 42.5 | 19.7 | 40.1 | 22.2 | 41.9 | 31.2 | 19.9 | 28.4
3 | CC[C@@H]1C[C@H]2CC3c4[nH]c5ccc(O)cc5c4CCN(C2)C31 | > 100 | > 100 | > 100 | > 100 | > 100 | > 100 | > 100 | > 100 | > 100 | > 100 |  |  |  |  |  |  |  |  |  | 
4 | CSCCOC(=O)C(=[N+]=[N-])c1ccc([N+](=O)[O-])cc1 | > 100 | > 100 | > 100 | > 100 | > 100 | > 100 | > 100 | > 100 | > 100 | > 100 |  |  |  |  |  |  |  |  |  | 
5 | COc1ccc(-c2cc(-c3ccc(O)cc3)nc3n[nH]c(N)c23)cc1 | 49.5 | > 100 | 91.6 | 48.2 | 92.5 | 28.6 | > 100 | 52.3 | > 100 | 32.4 | 17.9 | 24.1 | 26.1 | 15.1 | 29 | 14.7 | 31.7 | 15.3 | 33.6 | 14.6
6 | CCC[CH2][Sn]1([CH2]CCC)[O]C(=O)c2ccc(C)cc2[O]1 | 2.93 | 1.25 | 2.1 | 3.05 | 0.839 | 1.73 | 0.659 | 2.23 | 1.45 | 1.61 | 1.5 | 0.255 | 0.818 | 1.67 | 0.306 | 0.518 | 0.226 | 0.994 | 0.412 | 0.465
7 | CNC(=O)c1cccc2c(Nc3ccc(NS(C)(=O)=O)cc3OC)c3cccc(C)c3nc12 | 1.05 | 0.365 | 5.98 | 3.54 | 3.52 | 0.661 | 1.34 | 12.1 | 10.9 | 5.24 |  |  |  |  |  |  |  |  |  | 
8 | CC(C)(C)OC(=O)NC(CO)c1cccc(OCc2ccccc2)c1 (stereo unspecified) | > 100 | > 100 | > 100 | > 100 | > 100 | > 100 | > 100 | > 100 | > 100 | > 100 |  |  |  |  |  |  |  |  |  | 
9 | N#CS.N=C=S.N=C=S.[Cu+2].[NH2-].[NH2-].[NH2-].[NH2-].c1ccc2ncccc2c1 | 49.4 | > 100 | > 100 | 41 | 44 | > 100 | 49.9 | > 100 | > 100 | > 100 | 28.3 | > 100 | > 100 | 21.6 | 25.5 | > 100 | 21 | 47.4 | > 100 | > 100
10 | CC1(C)CCC(C)(C)c2c1ccc(O)c2Cc1c(O)ccc2c1C(C)(C)CCC2(C)C | 3.88 | 6.8 | 4.53 | 4.56 | 3.47 | 4.05 | 5.33 | 9.16 | 4.93 | 4.44 |  |  |  |  |  |  |  |  |  | 
11 | CC(=O)[C@@]1(O)[C@H](C)C[C@H]2[C@@H]3C=C(C)C4=Cc5c(cnn5-c5ccccc5)C[C@]4(C)[C@H]3[C@@H](O)C[C@@]21C | 15.7 |  | 13.8 | 5.76 | 6.42 | 2.85 | 11 | 11.4 | 13 | 3.93 | 2.5 | 1.77 | 2.8 | 1.52 | 1.31 | 1.22 | 2.65 | 1.25 | 3.22 | 1.86
12 | Cc1ncsc1-c1ccc(CNC(=O)[C@@H]2C[C@@H](O)CN2C(=O)[C@@H](NC(=O)C2(C#N)CC2)C(C)(C)C)cc1 | > 100 | > 100 | > 100 | > 100 | > 100 | > 100 | > 100 | > 100 | > 100 | > 100 | > 100 | 55.4 | > 100 | > 100 | > 100 | > 100 | 33.7 | 35.2 | > 100 | > 100
13 | COc1cc(OC)c(NC(=O)c2cc3ccccc3cc2O)cc1Cl | 17.7 | 91.5 | 8.45 | 34.5 | 8.51 | 12.9 | 15 | 28 | 17.3 | 14.5 | 3.32 | 5.25 | 2.88 | 4.7 | 3.82 | 3.04 | 1.59 | 2.22 | 3.6 | 3.91
14 | c1ccc2c(c1)[nH]c1c2nc2ncccn21 | > 100 | > 100 | > 100 | > 100 | > 100 | > 100 | > 100 | > 100 | > 100 |  |  |  |  |  |  |  |  |  |  | 
15 | O=C(NCC(O)CNC(=O)C(F)(F)F)C(F)(F)F | > 100 | > 100 | > 100 | > 100 | > 100 | > 100 | > 100 | > 100 |  | > 100 |  |  |  |  |  |  |  |  |  | 
16 | O=C(COC(=O)c1cccc2c(=O)c3ccccc3[nH]c12)Nc1ccccc1 | > 100 | 54.3 | > 100 |  | 97.9 | > 100 | > 100 | > 100 | > 100 | 51.6 |  |  |  |  |  |  |  |  |  | 

Reference: PubChem BioAssay (NCI)
